Assays:
[1] = tested on: refractory solid tumors of multiple tissue origins; test: Phase 1 clinical trial of elraglusib (NCT03678883), PFS and OS; type: in vivo, human; details: patients analysed, n=19, multiple tumor types
Protocol: Archival tumor specimens and peripheral blood samples were collected from patients enrolled in the Phase I study of Elraglusib (9-ING-41), a small molecule selective glycogen synthase kinase-3 beta (GSK-3b) inhibitor, as monotherapy or combined with cytotoxic regimens in patients with relapsed or refractory hematologic malignancies or solid tumors (Clinicaltrials.gov NCT03678883) who received treatment at the Lifespan Cancer Institute (Providence, RI, USA). The study was conducted in accordance with the Declaration of Helsinki and the International Conference on Harmonization Good Clinical Practice guidelines. The study protocol was approved by the Institutional Review Board (IRB) of Rhode Island Hospital under protocol number 1324888-120. The patients also participated in a Lifespan Cancer Institute research protocol designed to investigate molecular and genetic features of tumors and mechanisms of resistance (Rhode Island Hospital IRB protocol number 449060-38). All patients provided written informed consent.

[2] = tested on: NK-92 natural killer cells; test: Western blot analysis of NK-92 natural killer cells; type: cell-based, human; details: through the 72-hour endpoint
Protocol: Cells were plated in a 6-well plate and incubated overnight before the spent media was replaced with drugged media. Drug treatment lasted for indicated durations. Protein was extracted using radioimmunoprecipitation (RIPA) assay buffer (Cat #R0278, Sigma-Aldrich, St. Louis, MO) containing cOmplete™, Mini, EDTA-free Protease Inhibitor Cocktail (Cat #4693159001, Roche, Basel, Switzerland) from sub-confluent cells. Denaturing sample buffer was added, samples were boiled at 95 degrees for 10 minutes, and an equal amount of protein lysate was electrophoresed through NuPAGE™ 4 to 12%, Bis-Tris, 1.5 mm, Mini Protein Gels (Invitrogen, Waltham, MA) then transferred to PVDF membranes. The PVDF membrane was blocked with 5% non-fat milk (Sigma-Aldrich, St. Louis, MO) in 1×TTBS. Primary antibodies were incubated with the transferred PVDF membrane in blocking buffer at 4° C. overnight. Secondary antibodies used included Goat anti-Rabbit IgG (H+L) Secondary Antibody, HRP (Cat #31460, Invitrogen, Waltham, MA), and Goat anti-Mouse IgG (H+L) Secondary Antibody, HRP (Cat #31430, Invitrogen, Waltham, MA). Signal was detected using Pierce™ ECL Western Blotting Substrate (Cat #32106, Thermo Scientific, Waltham, MA, USA) and a Syngene Imaging System (RRID: SCR_015770).

[3] = Patient plasma cytokine profiling (Luminex 200), Phase 1 trial; type: in vivo, human
Protocol: Human cell line culture supernatants were analyzed using an R&D systems Human Premixed Multi-Analyte Kit (R&D Systems, Inc., Minneapolis, MN, USA) and a Luminex 200 (RRID: SCR_018025) Instrument (LX200-XPON-RUO, Luminex Corporation, Austin, TX, USA) according to the manufacturer's instructions. Sample levels of TNF-α, 4-1BB/TNFRSF9/CD137, IL-8/CXCL8, Ferritin, IFN-β, IL-10, CCL2/JE/MCP-1, VEGF, CXCL13/BLC/BCA-1, IFN-γ, CCL20/MIP-3 α, CCL3/MIP-1 α, CCL22/MDC, CCL4/MIP-1 β, Fas Ligand/TNFSF6, IL-17/IL-17A, IL-2, BAFF/BLyS/TNFSF13B, GM-CSF, CXCL5/ENA-78, TRANCE/TNFSF11/RANK L, CXCL9/MIG, G-CSF, IFN-γ R1/CD119, VEGFR3/Flt-4, C-Reactive Protein/CRP, CXCL11/I-TAC, IL-21, CXCL14/BRAK, IL-6, Fas/TNFRSF6/CD95, TRAIL R3/TNFRSF10C, IL-4, CCL5/RANTES, PD-L1/B7-H1, CCL7/MCP-3/MARC, Chitinase 3-like 1, CXCL10/IP-10/CRG-2, IL-1 β/IL-1F2, IL-7, Prolactin, CCL8/MCP-2, TRAIL R2/TNFRSF10B, M-CSF, IL-15, Granzyme B, IFN-α, TREM-1, IL-12/IL-23 p40, TRAIL/TNFSF10, CCL11/Eotaxin, and IL-18/IL-1F4. Quantitative analysis with 6 standards and a minimum of 50 counts per bead region was used with the Luminex to generate analyte values reported as picograms/milliliter (pg/mL). Sample concentrations less than the lower limit of detection for each particular analyte were recoded as the lower limit value divided by ten. […]

SW480 MSS CRC cells = test: Multicolor co-culture of SW480 CRC cells and TALL-104 T cells, EthD-1 dead cells; type: cell-based, human; details: for percentage of dead cells out of total cells (average, normalized): 24 hours, 1:1 E:T
Protocol: 10,000 HCT-116, SW480, or HT-29 cells were plated per well in a clear-bottom, black-walled 48-well tissue culture plate and were allowed to adhere overnight. […] CRC cells were labeled using CellTracker™ Green CMFDA (5-chloromethylfluorescein diacetate), immune cells (NK-92, TALL-104) were labeled using CellTracker™ Blue CMAC Dye (7-amino-4-chloromethylcoumarin), and ethidium homodimer-1 (EthD-1) was used as a marker of cell death (Invitrogen, Waltham, MA). 10× images were captured using a Nikon Ti-U Inverted Fluorescence Microscope and NIS-Elements F Package imaging software 3.22.00 Build 710 (Nikon Instruments Inc, USA). The number of red/green color cells in random fields was determined using thresholding and particle analysis in the Fiji modification (RRID: SCR_002285) of ImageJ and expressed as a dead/live cell ratio. Normalization was carried out by subtracting the percentage of cell death due to drug or vehicle control (DMSO) only from the percentage of dead cells observed in the co-culture of tumor and immune cells treated with the drug. At least 100 cells were evaluated per sample, with 3 independent replicates. Statistical analysis was done using GraphPad Prism 9 (RRID: SCR_002798).

For Cn1cc(C2=C(c3coc4ccc(F)cc34)C(=O)NC2=O)c2cc3c(cc21)OCO3 [elraglusib, 3-(5-fluorobenzofuran-3-yl)-4-(5-methyl-5H-[1,3]dioxolo[4,5-f]indol-7-yl)-1H-pyrrole-2,5-dione], the “median OS” value [1] was 101 days, the “median PFS” value [1] was 75.9 days and the Mcl-1 protein expression [2] was “did not observe a significant decrease”. For the same molecule, the “plasma cytokines, chemokines and growth factors (many of the analytes) vs baseline” value ([3]; 8- and 24-hours post-dose) was “upregulated”, the “plasma expression of many of the analytes in the panel” value ([3]; patients receiving a 7 mg/kg dose, 8- and 24-hour post-dose) was “increased expression” and the “percentage of dead cells out of total cells (average, normalized)” value (SW480 MSS CRC cells; co-culture with TALL-104, 5 μM) was 60%. For the same molecule, the “percentage of dead cells out of total cells (average, normalized)” value (SW480 MSS CRC cells; co-culture with TALL-104, 10 μM) was 65%, the “tumor cell death in SW480 monocultures” value (SW480 MSS CRC cells; drug only, no immune cells) was “limited tumor cell death” and the “percentage of dead cells (average, normalized)” value (SW480 MSS CRC cells; tumor cells pre-treated with 5 μM for 24 hours, then 24-hour co-culture with TALL-104) was 65%.
